Reference: ChEMBL document CHEMBL4689842, “EUbOPEN Chemogenomics Library wave 1” (2021)

Tested on: U2OS
Test: Incucyte cell viability with U2OS; further: filed as whole numbers so only -1 and 0 and 1 occur
Format: toxicity, cell-based
Conditions: human, 10 µM, compound concentration 10 uM
[1] = 6 h, replicate number 1, timepoint 6 hours
[2] = 12 h, replicate number 1, timepoint 12 hours
[3] = 12 h, replicate number 2, timepoint 12 hours
[4] = 18 h, replicate number 1, timepoint 18 hours
[5] = 24 h, replicate number 1, timepoint 24 hours
[6] = 0 h, replicate number 2, timepoint 0 hours
[7] = 18 h, replicate number 2, timepoint 18 hours
[8] = 24 h, replicate number 2, timepoint 24 hours

Compound	Growth Rate (0 h, replicate number 1, timepoint 0 hours)	Growth Rate [1]	Growth Rate [2]	Growth Rate [3]	Growth Rate [4]	Growth Rate [5]	Growth Rate [6]	Growth Rate [7]	Growth Rate [8]
CCCS(=O)(=O)Nc1ccc(F)c(C(=O)c2c[nH]c3ncc(Cl)cc23)c1F [PLX-4720]	0	1	0	1	0	0	–	–	–
CN1CCN(C(=O)C(C)(C)c2ccc(C(=O)Nc3cn4cc(-c5cc(C(C)(C)C)cc(C(C)(C)C)c5)ccc4n3)cc2)CC1 [T3-CLK-N]	–	–	1	–	0	0	0	1	1
CN1CCN(C(=O)C(C)(C)c2ccc(C(=O)Nc3cn4cc(-c5ccncc5)ccc4n3)cc2)CC1 [T3-CLK]	–	1	0	1	0	0	0	1	1
O=C(Cc1ccc(-c2ccc(OCCN3CCOCC3)cc2)cn1)NCc1ccccc1 [TIRBANIBULIN]	–	1	0	–	0	0	0	–	–
Cn1nc(C(F)(F)F)cc1-c1cnc(N2CCc3cc(S(=O)(=O)Nc4c(F)cc(Cl)cc4F)cc(N4CCCC4=O)c32)nc1 [TP-020]	–	0	1	0	1	1	1	0	0
